Measurements reported in US20040102511A1, “Substituted pyrrole derivatives” (priority 2002, published 2004).
Where a name gives a salt, the structure may show the parent alone.

Target: T1, HMG-CoA reductase (Rattus norvegicus, UniProt P51639)
T1 construct: were preincubated with liver microsomes at 37° C. for 30 minutes; from tissue
T1 sequence (P51639 1-887): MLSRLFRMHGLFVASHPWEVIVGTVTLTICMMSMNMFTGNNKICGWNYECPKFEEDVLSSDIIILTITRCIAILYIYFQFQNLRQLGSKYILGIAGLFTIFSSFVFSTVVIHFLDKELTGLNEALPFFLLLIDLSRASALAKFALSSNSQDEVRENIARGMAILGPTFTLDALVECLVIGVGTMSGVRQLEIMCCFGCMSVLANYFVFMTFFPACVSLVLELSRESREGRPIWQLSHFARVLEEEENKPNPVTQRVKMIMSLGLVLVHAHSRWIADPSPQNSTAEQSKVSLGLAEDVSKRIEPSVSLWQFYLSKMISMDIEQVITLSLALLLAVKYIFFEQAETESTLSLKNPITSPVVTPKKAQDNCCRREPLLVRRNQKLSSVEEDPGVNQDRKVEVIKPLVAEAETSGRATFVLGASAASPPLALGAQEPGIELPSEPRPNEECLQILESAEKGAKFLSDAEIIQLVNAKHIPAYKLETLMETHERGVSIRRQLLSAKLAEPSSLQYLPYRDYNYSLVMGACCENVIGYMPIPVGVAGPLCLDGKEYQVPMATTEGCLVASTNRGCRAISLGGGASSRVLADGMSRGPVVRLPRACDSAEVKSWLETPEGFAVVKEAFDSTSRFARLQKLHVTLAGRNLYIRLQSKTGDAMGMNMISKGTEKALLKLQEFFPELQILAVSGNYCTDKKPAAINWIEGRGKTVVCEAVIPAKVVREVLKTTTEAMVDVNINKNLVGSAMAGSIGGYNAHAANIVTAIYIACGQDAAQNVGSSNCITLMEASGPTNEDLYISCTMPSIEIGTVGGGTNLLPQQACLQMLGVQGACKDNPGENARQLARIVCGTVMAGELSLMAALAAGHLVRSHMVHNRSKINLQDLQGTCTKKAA
Experiment: in-vitro HMG-CoA reductase enzyme assay (liver microsomes, [14C] HMG-CoA)
Assay type: biochemical
Settings: 2.5 μM [14C] HMG-CoA as substrate, 37° C. for 15 minutes; compounds preincubated with liver microsomes at 37° C. for 30 minutes
Method: HMG-CoA reductase is a rate-limiting enzyme in the cholesterol biosynthesis, catalyzing the following reaction.
[^14C] HMG-CoA+2NADPH+2H^+→[^14C] mevanolate+CoA+2NADP^+ microsomes,
HMG-CoA as a substrate. The reaction was carried out in the presence of 100 mM KH2PO4, 20 mM G-6-P, 2.5 mM NADPH, 10 mM EDTA, 5 mM DTT and […] G-6-P dehydrogenase, at 37° C. for 15 minutes and quantitating [^14C] mevalonate as an end product.

Row | Molecule | IC50 [nM]
1 | CC(C)c1nc(N(C)S(C)(=O)=O)nc(-c2ccc(F)cc2)c1/C=C/[C@@H](O)C[C@@H](O)CC(=O)O [Rosuvastatin, reference compound] | 0.0385
2 | CC(C)c1c(C(=O)Nc2ccccc2)c(-c2ccccc2)c(-c2ccc(F)c(F)c2)n1CC[C@@H](O)C[C@@H](O)CC(=O)O [Compound No. 13, (3R,5R)-7-[2-(3,4-Difluorophenyl)-5-isopropyl-3-phenyl-4-[(phenylamino)carbonyl]-pyrrol-1-yl]-3,5-dihydroxy-1-heptanoic acid calcium salt] | 0.00625
3 | CC(C)c1c(C(=O)Nc2ccccc2)c(-c2ccccc2)c(-c2ccc(F)cc2F)n1CC[C@@H](O)C[C@@H](O)CC(=O)O [Compound No. 12, (3R,5R)-7-[2-(2,4-Difluorophenyl)-5-isopropyl-3-phenyl-4-[(phenylamino)carbonyl]-pyrrol-1-yl]-3,5-dihydroxy-1-heptanoic acid calcium salt] | 0.0123
4 | CC(C)c1c(C(=O)Nc2ccccc2)c(-c2ccc(C(F)(F)F)cc2)c(-c2ccc(F)cc2)n1CC[C@@H](O)C[C@@H](O)CC(=O)O [Compound No. 18, (3R,5R)-7-[2-(4-Fluorophenyl)-5-isopropyl-3-(4-trifluoromethylphenyl)-4-[(phenylamino)carbonyl]-pyrrol-1-yl]-3,5-dihydroxy-1-heptanoic acid calcium salt] | 0.0126
5 | (3R,5R)-7-[2-(4-Fluorophenyl)-5-isopropyl-3-phenyl-4-[(pyridin-2-yl-amino)carbonyl]pyrrol-1-yl]-3,5-dihydroxy-1-heptanoic acid calcium salt [Compound No. 5] | 0.0195
6 | (3R,5R)-7-[2-(4-Fluorophenyl)-5-isopropyl-3-(2,4-difluorophenyl)-4-[(phenylamino)carbonyl]-1H-pyrrol-3,5-dihydroxy-1-heptanoic acid calcium salt [Compound No. 15] | 0.0122
7 | (3R,5R)-7-[2,3-Di-(4-fluorophenyl)-5-isopropyl-4-[(phenylamino) carbonyl]-pyrrol-1-yl]-3,5-dihydroxy-1-heptanoic acid calcium salt [Compound No. 16] | 0.0345
8 | O=C(O)C[C@H](O)C[C@H](O)CCn1c(-c2ccc(F)cc2)c(-c2ccccc2)c(C(=O)Nc2ccccc2)c1C1CC1 [Compound No. 19, (3R,5R)-7-[2-(4-Fluorophenyl)-5-cyclopropyl-3-phenyl-4-[(phenylamino)carbonyl]-pyrrol-1-yl]-3,5-dihydroxy-1-heptanoic acid calcium salt] | 0.0124
9 | (3R,5R)-7-[2-(4-Fluorophenyl)-5-isopropyl-3-phenyl-4-[(4-fluorophenylamino)carbonyl]-pyrrol-1-yl]-3,5-dihydroxy-1-heptanoic acid calcium salt [Compound No. 4] | 0.0098
10 | Cc1ccc(-c2c(C(=O)Nc3ccccc3)c(C(C)C)n(CC[C@@H](O)C[C@@H](O)CC(=O)O)c2-c2ccc(F)cc2)cc1 [Compound No. 17, (3R,5R)-7-[2-(4-Fluorophenyl)-5-isopropyl-3-(4-methylphenyl)-4-[(phenylamino)carbonyl]-pyrrol-1-yl]-3,5-dihydroxy-1-heptanoic acid calcium salt] | 0.034
11 | (3R,5R)-7-[2-(4-Fluorophenyl)-5-isopropyl-3-phenyl-4-[(3-fluorophen ylamino)carbonyl]-pyrrol-1-yl]-3,5-dihydroxy 1-heptanoic acid calcium salt [Compound No. 3] | 0.0239
12 | CC(C)c1c(C(=O)Nc2ccccc2F)c(-c2ccccc2)c(-c2ccc(F)cc2)n1CC[C@@H](O)C[C@@H](O)CC(=O)O [Compound No. 2, (3R,5R)-7-[2-(4-Fluorophenyl)-5-isopropyl-3-phenyl-4-[(2-fluorophenylamino)carbonyl]-pyrrol-1-yl]-3,5-dihydroxy-1-heptanoic acid calcium salt] | 0.0177
